Target: T1, Human Polθ polymerase domain (aa1820-2590) (Homo sapiens, UniProt O75417)
T1 construct: Human Polθ polymerase domain (aa1820-2590) was expressed in E. coli; made in house; host or cells: E. coli
T1 sequence (O75417 1820-2590): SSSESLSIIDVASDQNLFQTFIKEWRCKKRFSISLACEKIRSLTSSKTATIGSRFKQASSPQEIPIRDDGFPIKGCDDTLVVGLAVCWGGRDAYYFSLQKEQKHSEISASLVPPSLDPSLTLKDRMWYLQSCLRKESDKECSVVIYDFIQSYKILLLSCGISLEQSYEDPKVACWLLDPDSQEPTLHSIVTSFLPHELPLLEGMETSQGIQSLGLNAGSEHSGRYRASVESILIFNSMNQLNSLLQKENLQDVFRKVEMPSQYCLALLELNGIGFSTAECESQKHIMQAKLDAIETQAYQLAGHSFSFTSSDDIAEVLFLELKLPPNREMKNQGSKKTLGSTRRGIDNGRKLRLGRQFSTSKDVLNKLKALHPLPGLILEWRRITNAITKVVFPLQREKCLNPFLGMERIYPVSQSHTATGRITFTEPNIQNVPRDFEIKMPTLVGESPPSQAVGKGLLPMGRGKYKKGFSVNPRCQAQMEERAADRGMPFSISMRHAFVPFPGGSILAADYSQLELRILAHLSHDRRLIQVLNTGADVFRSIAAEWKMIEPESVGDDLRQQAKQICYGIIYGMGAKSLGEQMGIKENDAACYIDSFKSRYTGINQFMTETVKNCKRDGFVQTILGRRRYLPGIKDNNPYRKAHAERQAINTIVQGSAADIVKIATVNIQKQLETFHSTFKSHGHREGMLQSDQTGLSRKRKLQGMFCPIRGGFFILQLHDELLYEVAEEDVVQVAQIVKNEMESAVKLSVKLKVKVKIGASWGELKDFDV
Assay: Polθ Polymerase Domain Kinact/KI Assay (PicoGreen)
Assay type: biochemical
Conditions: 0.8 nM Polθ, 100 nM DNA substrate, kobs vs [I] fit for 2-step covalent inhibitor
Method in brief: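 Time-dependent inhibition was followed with 0.8 nM polymerase domain, 100 nM DNA substrate and […], reactions quenched over 60 min and quantified by PicoGreen. Kinact and KI came from a secondary plot of kobs against inhibitor concentration.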

Row | Kinact/Kl | Compound
1 | 670000 M⁻¹ s⁻¹ | Cc1cc(C(F)(F)F)cc(N2C(=O)C[C@@H]3CN(CC45CC(CNC(=O)/C=C/CN(C)C)(C4)C5)c4c(C)cccc4N(C)C(=O)[C@H]32)n1 [Example 179, (E)-N-((3-(((3aR, 11aS)-6,10-dimeth-yl-1-(6-methyl-4-(trifluoromethyl)-pyridin-2-yl)-2,11-dioxo-1,2,3,3a,4, 10,11,11a-octa-hydro-5H-benzo [b]pyrrolo[2,3-f] [1,4]diazocin-5-yl)methyl)bicyclo [1.1.1]pentan-1-yl)methyl)-4-(dimethylamino)-but-2-enamide]
2 | 2.72e+06 M⁻¹ s⁻¹ | C=C(CN(C)C)C(=O)N1CC[C@@H](COCCN2C[C@H]3CC(=O)N(c4cc(C(F)(F)F)cc(C)n4)[C@@H]3C(=O)N(C)c3cccc(C)c32)C1 [Example 180, (3aR,11aS)-5-(2-(((R)-1-(2-((dimeth-ylamino)methyl)-acryloyl)pyrrolidin-3-yl)methoxy)eth-yl)-6,10-dimethyl-1-(6-methyl-4-(trifluoromethyl)-pyridin-2-yl)-1,3a,4,5,10,11a-hexahydro-2H-benzo[b]pyrrolo [2,3-f][1,4]diazo-cine-2,11(3H)-dione]
3 | 2.26e+06 M⁻¹ s⁻¹ | C=C(CN(C)C)C(=O)N1CC[C@H](COCCN2C[C@H]3CC(=O)N(c4cc(C(F)(F)F)cc(C)n4)[C@@H]3C(=O)N(C)c3cccc(C)c32)C1 [Example 181, (3aR,11aS)-5-(2-(((S)-1-(2-((dimeth-ylamino)methyl)-acryloyl)pyrrolidin-3-yl)methoxy)eth-yl)-6,10-dimethyl-1-(6-methyl-4-(trifluoromethyl)-pyridin-2-yl)-1,3a,4,5,10,11a-hexahydro-2H-benzo[b]pyrrolo [2,3-f][1,4]diazo-cine-2,11(3H)-dione]
4 | 5.23e+06 M⁻¹ s⁻¹ | C=C(CN(C)C)C(=O)N1CC(COCCN2C[C@H]3CC(=O)N(c4cc(C(F)(F)F)cc(C)n4)[C@@H]3C(=O)N(C)c3cccc(C)c32)C1 [Example 182, (3aR,11aS)-5-(2-((1-(2-((dimethyl-amino)methyl)-acryloyl)azetidin-3-yl)methoxy)eth-yl)-6,10-dimethyl-1-(6-methyl-4-(trifluoromethyl)-pyridin-2-yl)-1,3a,4,5,10,11a-hexahydro-2H-benzo[b]pyrrolo [2,3-f][1,4]diazo-cine-2,11(3H)-dione]
5 | 3.8e+06 M⁻¹ s⁻¹ | C=C(CN(C)C)C(=O)N1CC(CCCCN2C[C@H]3CC(=O)N(c4cc(C(F)(F)F)cc(C)n4)[C@@H]3C(=O)N(C)c3cccc(C)c32)C1 [Example 183, (3aR,11aS)-5-(4-(1-(2-((dimethyl-amino)methyl)-acryloyl)azetidin-3-yl)butyl)-6,10-dimethyl-1-(6-methyl-4-(trifluoro-methyl)pyridin-2-yl)-1,3a,4,5,10,11a-hexahydro-2H-benzo[b]pyrrolo [2,3-f][1,4]diazo-cine-2,11(3H)-dione]
6 | 1.33e+06 M⁻¹ s⁻¹ | C=C(CN(C)C)C(=O)NC12CC(CN3C[C@H]4CC(=O)N(c5cc(C(F)(F)F)cc(C)n5)[C@@H]4C(=O)N(C)c4cccc(C)c43)(C1)C2 [Example 184, N-(3-(((3aR,11aS)-6,10-dimethyl-1-(6-methyl-4-(trifluoromethyl)-pyridin-2-yl)-2,11-dioxo-1,2,3,3a,4, 10,11,11a-octa-hydro-5H-benzo [b]pyrrolo[2,3-f] [1,4]diazocin-5-yl)methyl)bicyclo [1.1.1]pentan-1-yl)-2-((dimethyl-amino)methyl)-acrylamide]
7 | 1.27e+06 M⁻¹ s⁻¹ | C=C(CN(C)C)C(=O)NCC12CC(CN3C[C@H]4CC(=O)N(c5cc(C(F)(F)F)cc(C)n5)[C@@H]4C(=O)N(C)c4cccc(C)c43)(C1)C2 [Example 185, N-((3-(((3aR,11aS)-6,10-dimethyl-1-(6-methyl-4-(trifluoromethyl)-pyridin-2-yl)-2,11-dioxo-1,2,3,3a,4, 10,11,11a-octa-hydro-5H-benzo [b]pyrrolo[2,3-f] [1,4]diazocin-5-yl)methyl)bicyclo [1.1.1]pentan-1-yl)methyl)-2-((dimethylamino)-methyl)acrylamide]
8 | 3.23e+06 M⁻¹ s⁻¹ | C=C(CN(C)C)C(=O)N1CC(c2ccc(CN3C[C@H]4CC(=O)N(c5cc(C(F)(F)F)cc(C)n5)[C@@H]4C(=O)N(C)c4cccc(C)c43)cc2)C1 [Example 186, (3aR,11aS)-5-(4-(1-(2-((dimethyl-amino)methyl)-acryloyl)azetidin-3-yl)benzyl)-6,10-dimethyl-1-(6-methyl-4-(trifluoro-methyl)pyridin-2-yl)-1,3a,4,5,10,11a-hexahydro-2H-benzo[b]pyrrolo [2,3-f][1,4]diazo-cine-2,11(3H)-dione]
9 | 1.41e+06 M⁻¹ s⁻¹ | C=C(CN(C)C)C(=O)N1CC(c2cc(CN3C[C@H]4CC(=O)N(c5cc(C(F)(F)F)cc(C)n5)[C@@H]4C(=O)N(C)c4cccc(C)c43)ccc2F)C1 [Example 187, (3aR,11aS)-5-(3-(1-(2-((dimethyl-amino)methyl)-acryloyl)azetidin-3-yl)-4-fluorobenz-yl)-6,10-dimethyl-1-(6-methyl-4-(trifluoromethyl)-pyridin-2-yl)-1,3a,4,5,10,11a-hexahydro-2H-benzo[b]pyrrolo [2,3-f][1,4]diazo-cine-2,11(3H)-dione]
10 | 3.35e+06 M⁻¹ s⁻¹ | C=C(CN(C)C)C(=O)NCc1ccc(CN2C[C@H]3CC(=O)N(c4cc(C(F)(F)F)cc(C)n4)[C@@H]3C(=O)N(C)c3cccc(C)c32)cc1 [Example 189, N-(4-(((3aR,11aS)-6,10-dimethyl-1-(6-methyl-4-(trifluoromethyl)-pyridin-2-yl)-2,11-dioxo-1,2,3,3a,4, 10,11,11a-octa-hydro-5H-benzo [b]pyrrolo[2,3-f] [1,4]diazocin-5-yl)-methyl)benzyl)-2-((dimethylamino)-methyl)acrylamide]
11 | 2.93e+06 M⁻¹ s⁻¹ | C=C(CN(C)C)C(=O)NCc1ccc(CN2C[C@H]3CC(=O)N(c4cc(C(F)(F)F)cc(C)n4)[C@@H]3C(=O)N(C)c3cccc(C)c32)cn1 [Example 190, N-((5-(((3aR,11aS)-6,10-dimethyl-1-(6-methyl-4-(trifluoro-methyl)pyridin-2-yl)-2,11-dioxo-1,2,3,3a,4,10,11, 11a-octahydro-5H-benzo[b]pyrrolo [2,3-f][1,4]diazo-cin-5-yl)methyl)-pyridin-2-yl)meth-yl)-2-((dimethyl-amino)methyl)-acrylamide]
12 | 1.4e+06 M⁻¹ s⁻¹ | C=C(CN(C)C)C(=O)N1CC(OCCCN2C[C@H]3CC(=O)N(c4cc(C(F)(F)F)cc(C)n4)[C@@H]3C(=O)Nc3cccc(C)c32)C1 [Example 191, (3aR,11aS)-5-(3-((1-(2-((dimethyl-amino)methyl)-acryloyl)azetidin-3-yl)oxy)propyl)-6-methyl-1-(6-methyl-4-(trifluoro-methyl)pyridin-2-yl)-1,3a,4,5,10, 11a-hexahydro-2H-benzo[b]pyr-rolo[2,3-f][1,4] diazocine-2, 11(3H)-dione]
13 | 2.18e+06 M⁻¹ s⁻¹ | C=C(CN(C)C)C(=O)N1CC(CCCCN2C[C@H]3CC(=O)N(c4cc(C(F)(F)F)cc(C)n4)[C@@H]3C(=O)Nc3cccc(C)c32)C1 [Example 192, (3aR,11aS)-5-(4-(1-(2-((dimethyl-amino)methyl)-acryloyl)azetidin-3-yl)butyl)-6-meth-yl-1-(6-methyl-4-(trifluoromethyl)-pyridin-2-yl)-1,3a,4,5,10,11a-hexahydro-2H-benzo[b]pyrrolo [2,3-f][1,4]diazo-cine-2,11(3H)-dione]
14 | 2.58e+06 M⁻¹ s⁻¹ | C=C(CN1CCN(C)CC1)C(=O)N1CC(COCCN2C[C@H]3CC(=O)N(c4cc(C(F)(F)F)cc(C)n4)[C@@H]3C(=O)N(C)c3cccc(C)c32)C1 [Example 193, (3aR,11aS)-6,10-dimethyl-1-(6-methyl-4-(trifluoro-methyl)pyridin-2-yl)-5-(2-((1-(2-((4-methylpiperazin-1-yl)methyl)acrylo-yl)azetidin-3-yl)-methoxy)ethyl)-1,3a,4,5,10,11a-hexahydro-2H-benzo[b]pyrrolo [2,3-f][1,4]diazo-cine-2,11(3H)-dione]
15 | 4.38e+06 M⁻¹ s⁻¹ | C/C=C(\CN(C)C)C(=O)N1CC(OCCCN2C[C@H]3CC(=O)N(c4cc(C(F)(F)F)cc(C)n4)[C@@H]3C(=O)N(C)c3cccc(C)c32)C1 [Example 194, (3aR,11aS)-5-(3-((1-((E)-2-((dimeth-ylamino)methyl)-but-2-enoyl)azeti-din-3-yl)oxy)prop-yl)-6,10-dimethyl-1-(6-methyl-4-(trifluoromethyl)-pyridin-2-yl)-1,3a,4,5,10,11a-hexahydro-2H-benzo[b]pyrrolo [2,3-f][1,4]diazo-cine-2,11(3H)-dione]

Reference: patent US20250230165A1, “HETEROCYCLIC COMPOUNDS FOR USE IN THE TREATMENT OF CANCER” (ARTIOS PHARMA LIMITED, priority 2021, published 2025)
